target: T1, α-amylase (Homo sapiens, UniProt P04746); assay: α-Amylase inhibition assay; assay type: biochemical
T1 sequence (P04746 16-511): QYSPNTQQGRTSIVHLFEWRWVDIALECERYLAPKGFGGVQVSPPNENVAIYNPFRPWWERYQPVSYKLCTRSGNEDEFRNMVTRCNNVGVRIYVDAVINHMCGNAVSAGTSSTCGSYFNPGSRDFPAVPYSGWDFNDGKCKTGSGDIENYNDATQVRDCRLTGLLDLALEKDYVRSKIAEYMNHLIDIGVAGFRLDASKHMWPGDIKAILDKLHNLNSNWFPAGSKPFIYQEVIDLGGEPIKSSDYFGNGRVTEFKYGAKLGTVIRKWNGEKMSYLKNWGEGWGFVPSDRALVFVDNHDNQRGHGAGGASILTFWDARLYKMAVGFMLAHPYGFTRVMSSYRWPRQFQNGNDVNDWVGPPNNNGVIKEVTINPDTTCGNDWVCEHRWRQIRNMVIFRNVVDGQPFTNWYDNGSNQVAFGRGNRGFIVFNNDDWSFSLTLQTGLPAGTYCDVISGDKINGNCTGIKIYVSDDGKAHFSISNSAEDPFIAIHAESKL

Row | IC50 [nM] | SMILES
1 | 2160 ± 20 | COc1cc(-c2nc3cc(Cl)ccc3[nH]2)ccc1OCc1ccccc1 [Compound 24, 5-Chloro-2-(4^′-(benzyloxy)-3^′-methoxyphenyl)-1H-benzo[d]imidazole]
2 | 2470 ± 110 | Clc1ccc2[nH]c(-c3cccc(OCc4ccccc4)c3)nc2c1 [Compound 29, 5-Chloro-2-(3^′-(benzyloxy)phenyl)-1H-benzo[d]imidazole]
3 | 2160 ± 70 | Cc1cc2nc(-c3ccc(OCc4ccccc4)cc3)[nH]c2cc1C [Compound 30, 5,6-Dimethyl-2-(4^′-(benzyloxy)phenyl)-1H-benzo[d]imidazole]
4 | 2150 ± 60 | Fc1ccc2[nH]c(-c3ccc(OCc4ccccc4)cc3)nc2c1 [Compound 31, 5-Fluoro-2-(4^′-(benzyloxy)phenyl)-1H-benzo[d]imidazole]
